Data reported in patent US20260355177A1, “TREATMENT FOR APLASTIC ANEMIA (AA)” (ZYDUS LIFESCIENCES LIMITED, priority 2022, published 2026).

Assays:
[1] = test system: busulphan-induced aplastic anemia in Balb/c mice; test: Busulphan-induced aplastic anemia in Balb/c mice: white blood cell (WBC) and platelet count; assay type: in vivo; conditions: after 44 days of treatment; Formula (Ia) 15 mg/kg PO daily; Romiplostim 50 μg/kg SC once a week; mean±SEM, n=6
Procedure: Aplastic anemia (AA) was induced in BALB/c mice by administration of busulphan (BU). BU was dissolved in acetone at concentrations of 5-10 mg/mL. Immediately before administration, deionized water was added to the BU-acetone solution and the solution was given by intraperitoneal (ip) injection at dose of 9 mg/kg. Control mice were given vehicle at the same dose volume.^9 Compound of formula (Ia) (15 mg/kg, PO, daily) and Romiplostim (50 μg/kg, SC, once a week) combination were administered.
Mice were be dosed with vehicle or BU on 10 occasions over a period of 21 days (days 1, 3, 6, 8, 10, 13, 15, 17, 19 and 21). Between 1 to 127 days after the final BU dose, mice from each group were autopsied for blood.^9
The changes in the white blood cell (WBC) and platelet count were measured after 44 days of treatment. Data are mean±SEM (n=6 for each group).

[2] = test system: cyclophosphamide-induced aplastic anemia in C57 mice; test: Cyclophosphamide-induced aplastic anemia in C57 mice: white blood cell (WBC) and platelet count; assay type: in vivo; conditions: after 11 days of treatment; Formula (Ia) 15 mg/kg PO daily; Romiplostim 30 μg/kg SC once a week; mean±SEM, n=6
Procedure: Aplastic anemia (AA) was induced in C57 mice by administration of cyclophosphamide. Cyclophosphamide was dissolved in deionized water at concentrations of 20 mg/mL. Immediately before administration, deionized water was added to the stock solution and the solution was given by intraperitoneal (ip) injection at dose of 100 mg/kg. Mice were dosed with vehicle or cyclophosphamide for 4 days. Control mice were given vehicle at the same dose volume.^10 Compound of formula (Ia) (15 mg/kg, PO, daily) and Romiplostim (30 μg/kg, SC, once a week) combination were administered.
Blood was collected from each group after 11 days of treatment. The changes in the white blood cell (WBC) and platelet count were measured. Data are mean±SEM (n=6 for each group).

Molecule | Platelets [1] | Platelets % Change against vehicle control [1] [%] | WBC [1] | WBC % Change against vehicle control [1] [%] | Platelets [2] | Platelets % Change against vehicle control [2] [%] | WBC [2] | WBC % Change against vehicle control [2] [%]
Romiplostim | 1257.0 10^3/uL | 142.7 | 4.2 10^3/uL | 79.3 |  |  |  | 
O=C(O)CNC(=O)c1c(O)c2ccccc2n(OCC2CC2)c1=O [Formula (Ia)] | 676.2 10^3/uL | 30.6 | 2.6 10^3/uL | 10.9 | 742.3 10^3/uL | 32.1 | 7.0 10^3/uL | 10.1
